Experiment in all cases: NCI-60 cell line screen, 48 h
Assay [1] has as its system M14 melanoma.
Assay [2] concerns MOLT-4 leukemia.
In assay [3] the test system is MALME-3M melanoma.
Assay [4] deals with SF-295 CNS.
Assay [5] has as its system U251 CNS.
In assay [6] the test system is MDA-MB-231 breast.
For assay [7], the system named is TK-10 renal.
Assay [8] has as its system MCF7 breast.
Assay [9] deals with RXF 393 renal.
Assay [10] relates to T-47D breast.

The text below walks through data of PubChem BioAssay (NCI).

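Cultured in 96-well plates, cells were exposed to test compound for 48 hours across five concentrations. GI50 = concentration required for 50% inhibition of growth. TGI denotes the concentration required for complete inhibition of growth.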 Bounds are passed on as bounds.

Take `O=C(NC(=O)c1cn(CCN2CCNCC2)c(=O)[nH]c1=O)OCc1ccccc1`: the TGI in assay [1], in [2], in assay [3], in [4] and in assay [5] was more than 100 µM in each case.
Take `Nn1c(CNc2ccc(-c3nnc(Nc4ccc(Cl)cc4)n3N)cc2)nnc1Nc1ccc(Cl)cc1`: the TGI in [1], in assay [2], in assay [6], in assay [3], in assay [4] and in assay [7] was more than 100 µM in each case. The TGI in assay [8], in [5] and in [9] was more than 100 µM in each case.
Regarding `CN(C)C(=S)Nc1nnc(NC23CC4CC(CC(C4)C2)C3)s1`, the TGI in assay [1] was 29.7 µM; in assay [2], more than 100 µM; in assay [3] it was 53.3 µM; in assay [4], 30.7 µM; in [7] it was more than 100 µM; in assay [5] it was 25.3 µM. The molecule further returned a TGI in assay [9] of 34.1 µM.
Turning to `CSCCC(NC(=O)C(Cc1ccccc1)NC(=O)CNC(=O)CNC(=O)C(N)Cc1ccc(O)cc1)C(=O)O` (configuration not stated), the TGI in [2], in assay [3], in assay [4], in [8], in [5] and in assay [9] was more than 100 µM throughout.
Consider `O=C1/C(=C/c2ccc(O)cc2)NC(=S)N1CN1CCCCC1`, for which the TGI in [1], in assay [2], in [6], in assay [3], in assay [4] and in assay [7] was more than 100 µM in each case. Also, the TGI in assay [8] and in assay [5] was more than 100 µM each time.
In the case of `CN(C)c1cccc(-c2cc(=O)c3ccccc3[nH]2)c1`, the TGI in assay [1], in [2], in assay [3], in assay [4], in assay [7] and in assay [5] was more than 100 µM throughout. In assay [9], the TGI was more than 100 µM. The GI50 in assay [4] was 28000 nM; in [9], 35.4 µM.
As to `C=CCn1c2ccccc2c2c(C)c3cnccc3c(C)c21`, the TGI in assay [2] was 9.82 µM; in assay [3], 62 µM; in assay [4], 52.5 µM; in [8], 62.6 µM; in assay [5] it was 81.3 µM; in assay [9] it was 24.5 µM.
For `COC1/C=C\C=C(/C)C(=O)NC2=CC(=O)C=C(C2=O)C(OC)C(C)CC(OC)C(OC)C(C)/C=C(/C)C1OC(N)=O` (configuration not stated), the TGI in [2] came to 1.25 µM; in assay [3], 0.826 µM; in [4] it was 35.4 µM; in assay [8], 8.37 µM; in assay [5], 25.8 µM.
As for `Cc1cccc2c1Oc1cc(Cl)ccc1C2NC(=O)CCN1CCCCC1` (configuration not stated), the TGI in assay [1] worked out at 34 µM; in [2], 34.3 µM; in [6], 39 µM; in assay [4] it was 33.1 µM; in [7], 30 µM; in assay [8] it was 33.6 µM. The TGI in [5] is 29.5 µM; in [10], 29.8 µM.
Consider `C#CCNC(=O)CCC(N)C(=O)O` (configuration not stated), for which the TGI in assay [2], in [3], in assay [4], in assay [8], in assay [5] and in [9] was more than 100 µM in each case.
As for `ON=C1CCCCC(=NO)CCCC1`, the TGI in assay [6], in assay [3], in assay [4], in [7], in assay [8] and in assay [5] was more than 100 µM in each case. In assay [10], the TGI was more than 100 µM.
Turning to `CC(C)(O)[C@@H]1CCC(C)([C@H]2[C@@H](O)CC3(C)C4CC(OC5OC(CO)C(O)C(O)C5O)C5C(C)(C)[C@@H](OC6OCC(O)C(O)C6O)CC[C@@]56C[C@@]46CC[C@]23C)O1` (some centres not stated), the TGI in [1], in assay [2], in assay [3], in assay [4], in [7] and in assay [5] was more than 100 µM each time. Moreover, the TGI in [9] is more than 100 µM.
`O=C(Nc1ccc(Cl)cc1)c1cc(S(=O)(=O)Nc2n[nH]c(=O)[nH]2)c(SSc2cc(Cl)c(C(=O)Nc3ccc(Cl)cc3)cc2S(=O)(=O)Nc2n[nH]c(=O)[nH]2)cc1Cl`: the TGI in assay [1], in assay [2], in [6], in assay [3], in [4] and in assay [7] was more than 100 µM in each case. In addition, the TGI in assay [8] and in assay [5] was more than 100 µM in each case.
Consider `CSc1ccc2c(c1)c(CCN)c(C)n2Cc1ccc(Cl)c(Cl)c1`, for which the GI50 in assay [1] is 1690 nM; in assay [6], 1690 nM; in assay [4], 1690 nM; in assay [7], 1510 nM; in [9] it was 1.66 µM. In addition, the TGI in assay [1] amounted to 3.22 µM; in [6], 3.39 µM; in assay [4] it was 3.22 µM; in assay [7], 2.95 µM; in assay [9] it was 3.12 µM.
With `OC1CN(OC/C=C/c2ccccc2)CC(O)C1O` (configuration not stated), the TGI in assay [1], in assay [2], in assay [3], in assay [4], in [7] and in assay [5] was more than 100 µM in each case. In addition, the TGI in assay [9] is more than 100 µM.
Consider `O=C1C=C2S[C@H]3C[C@]2(C=C1Br)c1c(c(O)c2c4c1=NCCC=4C=N2)N3`, for which the TGI in [1] turned out to be 2.01 µM; in assay [2], 0.418 µM; in [6] it was 1.16 µM; in assay [3], 0.261 µM; in assay [4], 2.83 µM; in assay [7], 2.71 µM. The TGI was determined as 3.17 µM in assay [5], 0.89 µM in assay [10] and 0.947 µM in assay [9].
Turning to `CSC1=N/C(=C\c2cccs2)C(=O)N1CN1CCOCC1`, the TGI in [1], in assay [2], in assay [6], in assay [3], in [4] and in [7] was more than 100 µM each time. Moreover, the TGI in assay [8] and in assay [5] was more than 100 µM each time.
For the molecule `CN(C)c1nc(N(C)C)nc(N(C)CN(C)c2ccccc2)n1`, the TGI in assay [2], in assay [3], in assay [4], in assay [7], in assay [5] and in [9] was more than 100 µM in each case.
In the case of `COc1ccc2c(=O)c([Se]c3coc4cc(OC)ccc4c3=O)coc2c1`, the TGI was 37.5 µM in [1]; more than 100 µM in assay [2]; more than 100 µM in [3]; more than 100 µM in assay [4]; more than 100 µM in assay [7]; more than 100 µM in assay [5]. Further, the TGI in [9] was more than 100 µM.
For `CCOC(=O)/C(C(=S)NC)=C(/N)N1CCCC1`, the TGI in [1], in assay [2], in [6], in assay [3], in assay [4] and in assay [7] was more than 100 µM throughout. The TGI in [5], in assay [10] and in assay [9] was more than 100 µM in each case.
Consider `C=C1C(=O)OC2/C=C(\C)CC/C=C(/C)CC(OC(=O)/C(=C/CO)CO)C12` (configuration not stated), for which the TGI in assay [1] was 39 µM; in assay [2], more than 100 µM; in assay [3] it was 42.2 µM; in assay [4] it was more than 100 µM; in assay [7], 34.5 µM; in assay [8] it was 48.7 µM. The TGI in [5] was determined as 47 µM; in [9] it was 23.7 µM.
In the case of `CC(=O)OC1C=CC2CCN3C(=O)c4cc5c(cc4[C@H]1C23)OCO5` (some centres not stated), the TGI in assay [1], in assay [2], in assay [3], in assay [4], in assay [7] and in [5] was more than 100 µM in each case. The molecule further registered a TGI in assay [9] of more than 100 µM.
For `CC(/C=C/c1ncccc1OCCCCCC(=O)O)=N\NC1=NCCN1`, the TGI in assay [1], in [2], in assay [3], in [4], in assay [7] and in assay [9] was more than 100 µM in each case.
For the molecule `CC1=CC(c2ccccc2)OP1(=O)c1ccccc1` (configuration not stated), the TGI in assay [1], in assay [3], in assay [4], in assay [7], in assay [8] and in [5] was more than 100 µM each time. For the same molecule, the TGI in [10] was more than 100 µM.
For the molecule `NCCCNCCSSCc1ccccc1CSSCCNCCCN`, the TGI in assay [1], in assay [2], in [3], in [4], in [7] and in assay [5] was more than 100 µM each time. The TGI in assay [9] was more than 100 µM.
For the molecule `CCN(CC)CCN1C(=O)c2cccc3c(-c4ccc5c(c4)ncn5C4CCCCC4)ccc(c23)C1=O`, the GI50 was 1100 nM in assay [2]; 1630 nM in assay [6]; 1380 nM in [3]; 1180 nM in assay [4]; 1760 nM in [7]; 1740 nM in assay [8]. Besides, in [10], the GI50 was 1650 nM. Moreover, the TGI is 3.88 µM in assay [2]; 3.19 µM in assay [6]; 2.81 µM in assay [3]; 2.69 µM in assay [4]; 4.39 µM in assay [7]; 4.65 µM in assay [8]. Besides, the TGI in assay [10] worked out at 6.22 µM.
As for `Cc1ccc2nc3c(C(=O)NCCN(C)C)cccc3cc2c1`, the TGI came out at 4.58 µM in assay [3]; 7.14 µM in [4]; 11.6 µM in assay [8]; 11.7 µM in assay [5]; 7.02 µM in [9].
Turning to `COCCO`, the TGI in assay [2], in assay [3], in assay [4], in [8], in [5] and in assay [9] was more than 100 µM each time.
On to `COc1cc2cc3c4c(cc(OC)c(OC)c4c2cc1OC)CCN3C(=O)CCCC(=O)O`, for which the TGI in assay [1], in assay [2], in [3], in assay [4], in assay [7] and in assay [5] was more than 100 µM throughout. In [9], this molecule had a TGI of more than 100 µM.
Consider `COc1ccc(/C=C2/C(=O)N(C(=O)c3ccccc3O)N=C2C)cc1OC`, for which the TGI in assay [1] was more than 55.6 µM; in [2] it was more than 100 µM; in assay [6] it was more than 100 µM; in [3] it was more than 100 µM; in [4] it was more than 100 µM; in assay [7], more than 100 µM. Besides, the values for the TGI in [8], in assay [5] and in assay [9] were 33.9 µM, more than 100 µM and 0.097 µM, respectively.
On to `O=C1C(NS(=O)(=O)c2ccccc2)=C(n2cnc3ccccc32)C(=O)c2ccccc21`, for which the TGI in [1], in [2], in assay [6], in [3], in [4] and in assay [7] was more than 100 µM throughout. The TGI was more than 100 µM in assay [8], more than 100 µM in assay [5] and 98.2 µM in assay [9].
In the case of `O=C1CCCCC/C=C2/CC[C@H](Sc3ccccc3)[C@@H]12`, the TGI in assay [1], in assay [2], in [3], in assay [4], in assay [7] and in assay [5] was more than 100 µM in each case. In assay [9], this molecule displayed a TGI of more than 100 µM.
Consider `CCN(CC)CCNc1ccc([N+](=O)[O-])c2nc3ccccc3c(N)c12`, for which the TGI is 1.67 µM in assay [1]; 2.23 µM in [2]; 2.4 µM in assay [6]; 1.75 µM in [4]; more than 10 µM in assay [7]; more than 10 µM in assay [5]. Further, the figures for the TGI in [10] and in assay [9] were more than 10 µM and 1.52 µM, respectively.
